Source: US8449864B2 (The Board of Trustees of the Leland Stanford Junior …, priority 2006, dated 2013)

How the values were obtained:
[1] = system: PMCs; assay: 3H-serotonin release from peritoneal mast cells; format: cell-based, mouse; conditions: BAPTA-AM, 30 min; ET-1 4 μM
Text: Results are mean ±SEM of 3 experiments. […] (data were pooled from triplicate determinations in two independent experiments that gave similar results).

[2] = system: PLCs containing PMCs; assay: NT degradation by peritoneal lavage cells (PLCs) containing peritoneal mast cells; format: cell-based, mouse; conditions: BAPTA-AM 50 mM pre-treatment; NT 10 μM, 30 min at 37° C.
Procedure: FIG. 5. Neurolysin and carboxypeptidase inhibitors prevent NT degradation by peritoneal mast cells. Kit^+/+ PLCs containing 5×10^4 PMCs were pre-treated for 15 min at 37° C. with one of the following protease inhibitors: chymostatin (chym, chymase inhibitor at 100 μM), CFp-Ala-Ala-Phe-pAB (CFp, […] at 10 μM only for PLCs), potato carboxypeptidase inhibitor (PCI, carboxypeptidase inhibitor at 10 μg/ml) and phosphodiepryl 03 (p03, neurolysin inhibitor at 100 nM for PLCs. Cells were then incubated with NT (10 μM) for 30 min at 37° C. Results are the percentage of NT remaining after incubation with cells compared to the starting concentration of NT (n=4-9 per group).
FIG. 12. (a), PLCs containing 1×10^4 PMCs obtained from either wild type C57BL/6 mice, Ntsr1-deficient (Ntsr1^−/−) mice or Ntsr2-deficient (Ntsr2^−/−) mice were incubated for 2 h with ^3H-5-hydroxytryptamine (3H-serotonin) at 37° C. and stimulated for 15 min at 37° C. with either ET-1 (4 μM) or NT (10 μM). (b), PLCs containing 1×10^4 PMCs obtained from C57BL/6 mice were incubated for 2 h with ^3H-serotonin and stimulated for 15 min with either ET-1 (4 μM) or NT (10 μM). In a separate set of experiments, cells were pre-incubated with BAPTA-AM (Sigma) ([…], 15 min at […]) before the addition of the stimuli. Results are mean ±SEM of 3 experiments. (c), mMC-CPA activity was measured in supernatants obtained from Kit^+/+ PLCs containing 5×10^4 PMCs that were stimulated for 30 min at 37° C. with either ET-1 (4 μM) or NT (10 μM). (d), PLCs containing 5×10^4 PMCs from C57BL/6J mice were pre-treated for 15 min at 37° C. with BAPTA-AM ([…], a Ca^2+ chelator that can reduce MC degranulation) and then incubated with NT (10 μM) for 30 min at 37° C. Results are expressed as the percentage of NT remaining after incubation with cells compared to that in samples of NT incubated in vehicle alone at 37° C. (data were pooled from triplicate determinations in two independent experiments that gave similar results). (e), Expression of mRNA for NT-receptors in the AtT20 neuroendocrine cell line, the mast cell line C1.MC/C57.1, C57BL/6J BMCMCs, Kit^+/+ BMCMCs and peritoneal mast cells purified from Kit^+/+ mice (PMCs).
NT, ET-1, C-reactive protein, and TNF measurements. Concentrations of NT, C-reactive protein, ET-1 and TNF were measured by ELISA (Bachem Peninsula Labs for NT; Biomedica, Vienna for C-reactive protein and ET-1; BD Biosciences for TNF). […] The detection limits for the ELISA kits were: 24 fmol/ml (NT), 0.048 fmol/ml (ET-1), 0.124 ng/ml (C-reactive protein) and […] (human TNF).

[3] = system: NTR1; conditions: cited from earlier work
[4] = target: NTR2 (Homo sapiens, UniProt O95665); conditions: cited from earlier work
Sequence of NTR2 (O95665 whole entry, species assumed): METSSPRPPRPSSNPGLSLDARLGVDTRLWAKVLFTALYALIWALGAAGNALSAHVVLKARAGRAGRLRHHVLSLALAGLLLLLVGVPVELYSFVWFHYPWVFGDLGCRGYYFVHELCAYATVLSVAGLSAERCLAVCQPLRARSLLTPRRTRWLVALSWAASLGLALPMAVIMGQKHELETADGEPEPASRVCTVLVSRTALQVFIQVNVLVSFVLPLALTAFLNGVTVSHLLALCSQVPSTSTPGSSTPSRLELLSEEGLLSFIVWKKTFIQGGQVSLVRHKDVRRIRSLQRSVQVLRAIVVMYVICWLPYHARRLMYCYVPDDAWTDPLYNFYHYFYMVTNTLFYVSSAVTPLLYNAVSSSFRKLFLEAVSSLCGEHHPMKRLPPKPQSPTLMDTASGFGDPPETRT

[5] = system: Kit+/+ BMCMCs; assay: Beta-hexosaminidase release of BMCMCs upon FcεRI cross-linking; format: cell-based, mouse; conditions: vs empty vector-treated cells
Procedure: FIG. 10. BMCMCs treated with shRNAs degranulate after high affinity Fc receptor for IgE (FcεRI) cross-linking to the same extent than BMCMCs treated with empty vector. Beta-hexosaminidase release by Kit^+/+ BMCMCs treated with empty vector, NLN-shRNA for NLN or mMC-CPA-shRNA. Cells (1.25×10^5) were sensitized with IgE mAb to dinitro-phenol (DNP, 2 μg/ml) overnight at 37° C. and then were challenged with DNP-human serum albumin (DNP-HSA, 10 ng/ml) for 30 min at 37° C.
Beta-hexosaminidase release. Beta-hexosaminidase was measured on an enzyme-linked immunosorbent assay “reader” that detects the hydrolysis product of p-nitrophenyl-N-acetyl-b-D-glucosamine (Sigma) used as a substrate.

[6] = system: mMC-CPA; assay: shRNA knock-down of mMC-CPA protein in BMCMCs (Western blot); format: cell-based, mouse; conditions: Kit+/+ BMCMCs, lentiviral shRNA
Text: (§1) FIG. 9. Use of shRNA approach to knock-down NLN and mMC-CPA in BMCMCs. Protein expression for: (a), NLN and (b), mMC-CPA; and (c), mMC-CPA activity in Kit^+/+ BMCMCs treated with either empty vector or shRNAs. (d), mMCP-4 and mMCP-5 protein expression in Kit^+/+ BMCMCs treated with empty vector, NLN-shRNA or mMC-CPA-shRNA.
Lentiviral vector production. pLentiLox 3.7 (pLL3.7), a vector engineered to co-express enhanced green fluorescent protein (GFP) as a reporter gene, that permits infected cells to be tracked by flow cytometry, was digested with Xhol and Hpal and the annealed oligos (SEQ ID NO. 3) 5′-t-[…]-ttcaagaga-[…]-ttttttc-3′ and (SEQ ID NO. 4) 5′-tcgagaaaaaa-[…]-tctcttgaa-[…]-a-3′ for mMC-CPA and (SEQ ID NO. 5) 5′-t-[…]-ttcaagaga-[…]-ttttttc-3′ (SEQ ID NO. 6) 5′-tcgagaaaaaa-[…]-tctcttgaa-[…]-a-3′ for NLN were ligated into pLL3.7 to yield a directed shRNA-producing vector. The 19 nt target sequences are indicated in capitals in the oligonucleotide sequence. Active viral stocks were created and concentrated as previously described. Briefly, 293T cells were transfected with the transfer vector plasmid pLL3.7-mMC-CPA or pLL3.7-NLN or pLL3.7 (empty vector), the VSV-G envelope-encoding plasmid pMD.G, and the packaging plasmid CMVΔR8.74 using the calcium phosphate method. […]

[7] = system: mMC-CPA; assay: CPA enzymatic activity in shRNA-transduced BMCMCs; format: cell-based, mouse
Procedure: as §1
CPA enzymatic activity assay. CPA enzymatic activity was assessed by measuring reduction of absorbance of a chromogenic substrate (N-[4-Methoxyphenylazoformyl]-Phe-OH) (Bachem Peninsula Labs) specific for CPA as previously described.

[8] = system: Kit+/+ BMCMCs; assay: NT degradation by A23187-activated shRNA-transduced BMCMCs; format: cell-based, mouse; conditions: A23187 5 μM; NT 10 μM, 30 min at 37° C.
Procedure: FIG. 8. MC-associated neurolysin (NLN) contributes to the MCs' ability to reduce NT-induced hypotension. (a) Identification of NLN in the membrane and cytosol fractions of C1.MC/C57.1 MCs and C57BL/6J BMCMCs. (b) Degradation of NT (10 μM) by membrane and cytosol preparations obtained from Kit^+/+ BMCMCs (2×10^6 cells/preparation) that were pre-treated with either vehicle or with Pro-Ile (10 μM, 15 min at […]). Results are expressed as the percentage of NT remaining after incubation with membrane or cytosol preparations compared to that in samples of NT incubated in vehicle alone (n=3). […] Results are expressed as the percentage of NT remaining in the samples compared to that in samples of NT incubated in vehicle alone at 37° C. […] (e) Changes in MAP versus baseline levels (=“0”, measured 3 min after injection of 300 μl saline, i.p.) at various times after injection of NT (6 nmol in 300 μl saline, i.p.) in Kit^W/W-v mice which had been engrafted i.p. with Kit^+/+ BMCMCs treated with either empty vector (empty vector MCs→Kit^W/W-v), NLN-shRNA (NLN-shRNA MCs→Kit^W/W-v) or mMC-CPA-shRNA (mMC-CPA-shRNA MCs→Kit^W/W-v). […]
NT, ET-1, C-reactive protein, and TNF measurements. Concentrations of NT, C-reactive protein, ET-1 and TNF were measured by ELISA (Bachem Peninsula Labs for NT; Biomedica, Vienna for C-reactive protein and ET-1; BD Biosciences for TNF). […]

Question: For `CC(=O)OCOC(=O)CN(CC(=O)OCOC(C)=O)c1ccccc1OCCOc1ccccc1N(CC(=O)OCOC(C)=O)CC(=O)OCOC(C)=O` [BAPTA-AM], which “ET-1-induced PMC serotonin release” value [1] is on record?
Answer: Its value is “markedly inhibited”.

Question: What about the “ability of PMCs to degrade NT” value [2] of the same molecule?
Answer: Its value is “did not reduce the ability of PMCs to degrade NT”.

Question: What does the source list for `COc1cccc(OC)c1-c1cc(C(=O)NC2(C(=O)O)C3CC4CC(C3)CC2C4)nn1-c1ccc(C(=O)N(C)CCCN(C)C)cc1C(C)C` (stereo not drawn) [SR142948A]?
Answer: affinity for NTR1 relative to SR48692 [3]: higher affinity for NTR1 than SR48692; affinity for NTR1 ([3]; different tissues and cells from various species): nanomolar affinity; affinity for NTR2 [4]: nanomolar affinity

B1: mMC-CPA-shRNA: lentivirus-delivered short hairpin RNA silencing mMC-CPA, SEQ ID NO. 3/4 (nucleic acid)
chain 1: TGAAACAGTTTGATGTGAAATTCAAGAGATTTCACATCAAACTGTTTCTTTTTTC
chain 2: TCGAGAAAAAAGAAACAGTTTGATGTGAAATCTCTTGAATTTCACATCAAACTGTTTCA
Question: What does the source list for B1?
Answer: degranulation upon FcεRI cross-linking [5]: degranulated to the same extent; reduction in mMC-CPA protein expression level [6]: 90%; mMC-CPA enzymatic activity [7]: substantially reduced; ability to degrade NT after activation with A23187 [8]: significantly reduced ability to degrade NT
